Measurements from ChEMBL document CHEMBL1201862, “PubChem BioAssay data set” (2004).
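Growth conditions: 96-well plates. Treatment: test compound, 48 hours, 5 concentrations. Analysis: linear interpolation between bracketing concentrations; unreached endpoints set to highest concentration. At the GI50, growth is halved.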 The source made the active and inactive calls. Cut-off read from the data, not from the text of the source: active = GI50 up to about 1.1 µM and inactive = higher.

What was measured:
Experiment in all cases: inhibition of tumour cell growth, NCI panel, 48 h
EKVX = tested on: EKVX
SK-OV-3 = tested on: SK-OV-3
SNB-78 = tested on: SNB-78
SF-295 = tested on: SF-295
CCRF-CEM = tested on: CCRF-CEM
COLO 205 = tested on: COLO 205
SF-539 = tested on: SF-539
OVCAR-3 = tested on: OVCAR-3
ACHN = tested on: ACHN
786-0 = tested on: 786-0
SN12C = tested on: SN12C
UACC-257 = tested on: UACC-257
HCT-116 = tested on: HCT-116
DMS-114 = tested on: DMS-114
Malme-3M = tested on: Malme-3M
SNB-19 = tested on: SNB-19
MOLT-4 = tested on: MOLT-4
NCI-H23 = tested on: NCI-H23
RPMI-8226 = tested on: RPMI-8226
UO-31 = tested on: UO-31
HOP-18 = tested on: HOP-18
U-251 = tested on: U-251
OVCAR-8 = tested on: OVCAR-8
HOP-92 = tested on: HOP-92
SNB-75 = tested on: SNB-75
A549 = tested on: A549
XF498 = tested on: XF498
SK-MEL-28 = tested on: SK-MEL-28
HT-29 = tested on: HT-29
HL-60 = tested on: HL-60
K562 = tested on: K562
OVCAR-4 = tested on: OVCAR-4
SF-268 = tested on: SF-268
M14 = tested on: M14
DMS-273 = tested on: DMS-273
KM12 = tested on: KM12
DLD-1 = tested on: DLD-1
M19-MEL = tested on: M19-MEL
A498 = tested on: A498
IGROV-1 = tested on: IGROV-1
OVCAR-5 = tested on: OVCAR-5
LXFL 529 = tested on: LXFL 529
NCI-H522 = tested on: NCI-H522
SK-MEL-5 = tested on: SK-MEL-5
SW-620 = tested on: SW-620
HOP-62 = tested on: HOP-62
HCC 2998 = tested on: HCC 2998
CAKI-1 = tested on: CAKI-1
NCI-H460 = tested on: NCI-H460
UACC-62 = tested on: UACC-62
HCT-15 = tested on: HCT-15
KM-20L2 = tested on: KM-20L2
SR = tested on: SR

COc1ccc(CSc2nc3ccccc3nc2-c2cccs2)cc1
GI50 (EKVX): > 100 µM (inactive) | GI50 (SK-OV-3): > 100 µM (inactive) | GI50 (SNB-78): > 100 µM (inactive) | GI50 (SF-295): > 100 µM (inactive) | GI50 (CCRF-CEM): 15.2 µM (inactive) | GI50 (COLO 205): > 100 µM (inactive) | GI50 (SF-539): > 100 µM (inactive) | GI50 (OVCAR-3): > 100 µM (inactive) | GI50 (ACHN): > 100 µM (inactive) | GI50 (786-0): > 100 µM (inactive) | GI50 (SN12C): > 100 µM (inactive) | GI50 (UACC-257): 98.4 µM (inactive) | GI50 (HCT-116): > 100 µM (inactive) | GI50 (DMS-114): 76 µM (inactive) | GI50 (Malme-3M): > 100 µM (inactive) | GI50 (SNB-19): > 100 µM (inactive) | GI50 (MOLT-4): 56.2 µM (inactive) | GI50 (NCI-H23): > 100 µM (inactive) | GI50 (RPMI-8226): > 100 µM (inactive) | GI50 (UO-31): > 100 µM (inactive) | GI50 (HOP-18): > 100 µM (inactive) | GI50 (U-251): > 100 µM (inactive) | GI50 (OVCAR-8): > 100 µM (inactive) | GI50 (HOP-92): > 100 µM (inactive) | GI50 (SNB-75): > 100 µM (inactive) | GI50 (A549): > 100 µM (inactive) | GI50 (XF498): > 100 µM (inactive) | GI50 (SK-MEL-28): > 100 µM (inactive) | GI50 (HT-29): > 100 µM (inactive) | GI50 (HL-60): 26.4 µM (inactive) | GI50 (K562): 30.7 µM (inactive) | GI50 (OVCAR-4): > 100 µM (inactive) | GI50 (SF-268): > 100 µM (inactive) | GI50 (M14): > 100 µM (inactive) | GI50 (DMS-273): > 100 µM (inactive)

C/C(=N\NS(=O)(=O)c1ccc(C)cc1)c1ccc[n+]([O-])n1
GI50 (EKVX): > 100 µM (inactive) | GI50 (KM12): > 100 µM (inactive) | GI50 (DLD-1): 50.1 µM (inactive) | GI50 (SK-OV-3): > 100 µM (inactive) | GI50 (M19-MEL): > 100 µM (inactive) | GI50 (SF-295): > 100 µM (inactive) | GI50 (CCRF-CEM): 25.2 µM (inactive) | GI50 (SF-539): > 100 µM (inactive) | GI50 (A498): > 100 µM (inactive) | GI50 (IGROV-1): > 100 µM (inactive) | GI50 (OVCAR-3): 39.5 µM (inactive) | GI50 (ACHN): > 100 µM (inactive) | GI50 (786-0): > 100 µM (inactive) | GI50 (OVCAR-5): > 100 µM (inactive) | GI50 (SN12C): > 100 µM (inactive) | GI50 (UACC-257): > 100 µM (inactive) | GI50 (LXFL 529): 45.2 µM (inactive) | GI50 (NCI-H522): 36.9 µM (inactive) | GI50 (HCT-116): > 100 µM (inactive) | GI50 (DMS-114): > 100 µM (inactive) | GI50 (SK-MEL-5): > 100 µM (inactive) | GI50 (SW-620): 32.1 µM (inactive) | GI50 (SNB-19): > 100 µM (inactive) | GI50 (HOP-62): > 100 µM (inactive) | GI50 (MOLT-4): 56.9 µM (inactive) | GI50 (NCI-H23): > 100 µM (inactive) | GI50 (RPMI-8226): 36.8 µM (inactive) | GI50 (UO-31): > 100 µM (inactive) | GI50 (HCC 2998): > 100 µM (inactive) | GI50 (CAKI-1): 25.1 µM (inactive) | GI50 (HOP-18): > 100 µM (inactive) | GI50 (NCI-H460): > 100 µM (inactive) | GI50 (U-251): > 100 µM (inactive) | GI50 (UACC-62): > 100 µM (inactive) | GI50 (OVCAR-8): 99.3 µM (inactive) | GI50 (HOP-92): 32.3 µM (inactive) | GI50 (SNB-75): 37.9 µM (inactive) | GI50 (A549): > 100 µM (inactive) | GI50 (XF498): > 100 µM (inactive) | GI50 (SK-MEL-28): > 100 µM (inactive) | GI50 (HT-29): > 100 µM (inactive) | GI50 (HL-60): 26.9 µM (inactive) | GI50 (K562): 26.3 µM (inactive) | GI50 (HCT-15): > 100 µM | GI50 (OVCAR-4): > 100 µM (inactive) | GI50 (SF-268): > 100 µM (inactive) | GI50 (M14): 39.6 µM (inactive) | GI50 (DMS-273): > 100 µM (inactive) | GI50 (KM-20L2): > 100 µM (inactive) | GI50 (SR): 36.7 µM (inactive)
